# Assay results taken from ChEMBL document CHEMBL4304829, “PROTAC Degradation of IRAK4 for the Treatment of Cancer” (ACS Med Chem Lett, 2019).
# What was measured:
# Type in all cases: cell-based
# [1] = target: T1, Protein cereblon/Interleukin-1 receptor-associated kinase 4 (Homo sapiens) (UniProt Q9NWZ3+Q96SW2); assay: Protac activity at IRAK4 in human OCl-LY10 cells assessed as increase in E3 ubiquitin ligase mediated IRAK4 degradation at 0.01 uM incubated for 4 hrs by Western blot analysis relative to control
# [2] = target: T1, Protein cereblon/Interleukin-1 receptor-associated kinase 4 (Homo sapiens); assay: Protac activity at IRAK4 in human OCl-LY10 cells assessed as increase in E3 ubiquitin ligase mediated IRAK4 degradation at 1 uM incubated for 4 hrs by Western blot analysis relative to control
# [3] = target: T1, Protein cereblon/Interleukin-1 receptor-associated kinase 4 (Homo sapiens); assay: Protac activity at IRAK4 in human OCl-LY10 cells assessed as increase in E3 ubiquitin ligase mediated IRAK4 degradation at 0.1 uM incubated for 4 hrs by Western blot analysis relative to control
# T1 sequence (Q96SW2 whole entry, looked up): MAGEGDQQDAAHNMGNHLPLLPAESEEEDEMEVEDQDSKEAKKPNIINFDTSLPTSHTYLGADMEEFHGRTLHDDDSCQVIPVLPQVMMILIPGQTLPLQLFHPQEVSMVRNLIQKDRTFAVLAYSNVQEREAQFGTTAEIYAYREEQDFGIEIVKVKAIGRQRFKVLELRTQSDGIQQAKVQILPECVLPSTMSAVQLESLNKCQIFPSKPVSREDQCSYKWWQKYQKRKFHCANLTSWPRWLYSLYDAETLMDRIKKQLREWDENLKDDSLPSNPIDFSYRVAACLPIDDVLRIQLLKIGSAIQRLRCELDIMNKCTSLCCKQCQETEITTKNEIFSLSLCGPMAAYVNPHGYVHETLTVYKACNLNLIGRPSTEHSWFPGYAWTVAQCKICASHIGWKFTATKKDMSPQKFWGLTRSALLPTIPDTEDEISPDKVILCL
# T1 sequence (Q9NWZ3 whole entry, looked up): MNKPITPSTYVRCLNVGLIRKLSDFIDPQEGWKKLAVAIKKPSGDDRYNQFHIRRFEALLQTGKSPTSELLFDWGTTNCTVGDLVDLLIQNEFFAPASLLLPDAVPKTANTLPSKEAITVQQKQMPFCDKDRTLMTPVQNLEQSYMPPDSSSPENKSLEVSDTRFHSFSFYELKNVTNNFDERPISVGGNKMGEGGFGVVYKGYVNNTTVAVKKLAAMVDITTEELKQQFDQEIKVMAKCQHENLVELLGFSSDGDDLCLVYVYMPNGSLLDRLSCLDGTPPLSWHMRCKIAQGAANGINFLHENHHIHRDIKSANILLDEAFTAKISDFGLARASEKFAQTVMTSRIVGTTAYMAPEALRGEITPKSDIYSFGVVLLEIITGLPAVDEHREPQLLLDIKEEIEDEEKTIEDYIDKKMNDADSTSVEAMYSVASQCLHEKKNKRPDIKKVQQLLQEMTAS
Activity [1],Activity [2],Activity [3],Compound
> 50%,> 50%,> 50%,CN(CCOCCOCCCc1ccc2c(c1)C(=O)N(C1CCC(=O)NC1=O)C2=O)C(=O)c1ccc(-n2cc(NC(=O)c3coc(-c4ccnc(NCC5CC5)c4)n3)c(C(N)=O)n2)cc1 (stereo not given)
> 20%,> 50%,> 50%,O=C1CCC(n2c(=O)oc3c(CCCOCCOCCNC(=O)c4ccc(-n5cc(NC(=O)c6coc(-c7ccnc(NCC8CC8)c7)n6)c(C(F)F)n5)cc4)cccc32)C(=O)N1 (stereo not given)
> 20%,> 50%,> 50%,CN(CCOCCCc1cccc2c1C(=O)N(C1CCC(=O)NC1=O)C2=O)Cc1ccc(-n2cc(NC(=O)c3coc(-c4ccnc(NCC5CC5)c4)n3)c(C(N)=O)n2)cc1 (stereo not given)
> 20%,> 50%,> 50%,CN(CCOCCOCCCc1ccc2c(c1)C(=O)N(C1CCC(=O)NC1=O)C2=O)Cc1ccc(-n2cc(NC(=O)c3coc(-c4ccnc(NCC5CC5)c4)n3)c(C(N)=O)n2)cc1 (stereo not given)
> 50%,> 50%,> 50%,NC(=O)c1nn(-c2ccc(C(=O)NCC3CCCCN3CCOCCNc3cccc4c3C(=O)N(C3CCC(=O)NC3=O)C4=O)cc2)cc1NC(=O)c1coc(-c2ccnc(NCC(F)(F)F)c2)n1 (stereo not given)
> 50%,> 50%,> 50%,NCc1nn(-c2ccc(C(=O)NCCOCCOCCNc3cccc4c3C(=O)N(C3CCC(=O)NC3=O)C4=O)cc2)cc1NC(=O)c1coc(-c2ccnc(NCC(F)(F)F)c2)n1 (stereo not given)
> 50%,> 50%,> 50%,O=C1CCC(N2C(=O)c3cccc(NC4CCN(CCOCCOCCNC(=O)c5ccc(-n6cc(NC(=O)c7coc(-c8ccnc(NCC(F)(F)F)c8)n7)c(C(F)F)n6)cc5)CC4)c3C2=O)C(=O)N1 (stereo not given)
> 50%,> 50%,> 50%,NC(=O)c1nn(-c2ccc(CNCC3CN(CCOCCNc4cccc5c4C(=O)N(C4CCC(=O)NC4=O)C5=O)CCO3)cc2)cc1NC(=O)c1coc(-c2ccnc(NCC(F)(F)F)c2)n1 (stereo not given)
> 50%,> 50%,> 50%,O=C1CCC(N2C(=O)c3cccc(NCCNCCOCCNC(=O)c4ccc(-n5cc(NC(=O)c6coc(-c7ccnc(NCC8CC8)c7)n6)c(C(F)(F)F)n5)cc4)c3C2=O)C(=O)N1 (stereo not given)
> 20%,> 50%,> 50%,CN(CCOCCOCCCc1ccc2c(c1)C(=O)N(C1CCC(=O)NC1=O)C2=O)Cc1ccc(-n2cc(NC(=O)c3coc(-c4ccncc4)n3)c(C(N)=O)n2)cc1 (stereo not given)
